In US20050130979A1, “Treatment of demyelinating disorders” (Eisai Co., Ltd., priority 1998, published 2005):
Entries after “also recorded” stand apart in the source; their conditions may differ.

Legend:
Lewis rat acute EAE = assay: Acute-active EAE in Lewis rats (MBP immunisation), clinical disease scoring and weight; format: in vivo; settings: for Incidence (%) / Incidence (animals with neurological deficit / group): Lewis rat acute EAE; for Duration / Onset / Peak Disease Score / Cumulative Disease Score / Weight Loss: mean; for Peak Disease Score: scale 0-5; for neurological deficits during acute EAE (in words): following treatment; for severity of paralysis during EAE (in words): vs vehicle
Experimental: Female Lewis rats (205+10 g) obtained from Charles River, Kent, UK, were housed in pairs under environmentally controlled conditions (6:00 a.m.-6:00 p.m. light/dark cycle; 22-24° C.; 45-55% humidity) and allowed free access to food and water. […] Female Biozzi mice (20±5 g) obtained from Harlan, UK, were housed under the conditions described above. Experimental groups consisted of 7-10 animals.
Rats were immunised in each hind foot with 50 μl of inoculum containing 50 μg guinea pig myelin basic protein (MBP, prepared by the method of Dunkley and Carnegie (1974); final concentration […]), emulsified in Freund's complete adjuvant (CFA; Sigma, UK) containing Mycobacterium tuberculosis H37Ra (final concentration 5.5 mg/ml; Difco Laboratories, UK).
Animals were weighed and monitored daily and clinical disease scored as (0) no clinical signs; (1) flaccid tail and weight loss; (2) hind limb hypotonia with further weight loss; (3) complete hind limb paralysis; (4) paraplegia and (5) death. […] During the period of compound administration (10-16 days post immunisation; dpi) animals were scored 15 h after injection of vehicle or NBQX to avoid any acute effect of treatment on disease score.
NBQX was initially dissolved in NaOH and diluted with water. pH was adjusted with HCl. Rats were injected i.p. twice daily (9 a.m. and 5 p.m.) on days 10 to 16 post immunisation with either vehicle or NBQX in the dose of 30 mg/kg. Mice were injected i.p. either twice daily (9 a.m. and 5 p.m.) on days 10 to 16 post immunisation or once daily (9 a.m.) on days 26 to 42 post immunisation with either vehicle or NBQX in the dose of 30 mg/kg.
GYKI53773 was suspended in 5% cremophore in saline. Rats were injected i.p. twice daily (9 a.m. and 5 p.m.) on days 10 to 16 post immunisation with either vehicle or GYKM53773 in the dose of 30 mg/kg.
GYKM52466 was suspended in 5% cremophore in water. Rats were injected i.p. twice daily (9 a.m. and 5 p.m.) on days 10 to 16 post immunisation with either vehicle or GYKI52466 in the dose of 30 mg/kg.
BIIR561 was suspended in 5% cremophore in water. Rats were injected i.p. twice daily (9 a.m. and 5 p.m.) on days 10 to 16 post immunisation with either vehicle or BIIR561 in the dose of 30 mg/kg.
CP465022 was suspended in 5% cremophore in water. Rats were injected i.p. twice daily (9 a.m. and 5 p.m.) on days 10 to 16 post immunisation with either vehicle or CP465022 in the dose of 10 mg/kg.
MPQX was initially dissolved in NaOH and diluted with water. pH was adjusted with HCl. Rats were injected i.p. twice daily (9 a.m. and 5 p.m.) on days 10 to 16 post immunisation with either vehicle or MPQX in the dose of 10 mg/kg.

[1] = system: chronic EAE in the Biozzi mouse; assay: Chronic-active EAE in Biozzi mice, clinical disease scoring; format: in vivo
[2] = BIIR561 30 mg/kg i.p. twice daily 10-16 dpi
[3] = rats, 30 mg/kg i.p. twice daily 10-16 dpi
[4] = rats, 30 mg/kg i.p. twice daily 10-16 dpi, 30 mg/kg
[5] = CP465022 10 mg/kg i.p. twice daily 10-16 dpi
[6] = rats, 10 mg/kg i.p. twice daily 10-16 dpi
[7] = rats, 10 mg/kg i.p. twice daily 10-16 dpi, 10 mg/kg
[8] = GYKI52466 30 mg/kg i.p. twice daily 10-16 dpi
[9] = MPQX 10 mg/kg i.p. twice daily 10-16 dpi
[10] = NBQX 30 mg/kg i.p. twice daily 10-16 dpi
[11] = 30 mg/kg i.p. twice daily 10-16 dpi
[12] = GYKI53773 30 mg/kg i.p. twice daily 10-16 dpi

CN(C)Oc1ccccc1-c1nc(-c2ccccc2)no1 [BIIR561, 5-(2-[N,N-dimethylamino]oxy-phenyl)-3-phenyl-1,2,4-oxadiazol]
Incidence (%) (Lewis rat acute EAE; [2]): (100) %
Incidence (animals with neurological deficit / group) (Lewis rat acute EAE; [2]): 16/16
Duration (Lewis rat acute EAE; [2]): 3.9 days
Onset (Lewis rat acute EAE; n = 16 for BIIR561, 30 mg/kg i.p. twice daily 10-16 dpi): 12.4 d.p.i.
Peak Disease Score (Lewis rat acute EAE; [2]): 2.6
Cumulative Disease Score (Lewis rat acute EAE; summation of daily scores, BIIR561 30 mg/kg i.p. twice daily 10-16 dpi): 7.8
Weight Loss (Lewis rat acute EAE; weight on cessation of experiment as percent of maximum weight before disease onset, BIIR561 30 mg/kg i.p. twice daily): 17%
neurological deficits during acute EAE (in words) (Lewis rat acute EAE; rats): reduced neurological deficits
cumulative disease score relative to vehicle treatment (in words) (Lewis rat acute EAE; [3]): significantly reduced
peak disease score relative to vehicle treatment (in words) (Lewis rat acute EAE; [4]): significantly reduced
severity of paralysis during EAE (in words) (Lewis rat acute EAE; [3]): redcues the severity of paralysis

CCN(CC)Cc1cccc(C=Cc2nc3ccc(F)cc3c(=O)n2-c2ccccc2Cl)n1 [CP465022, 3-(2-chlorophenyl)-2-[2-[6-[(diethylamino)methyl]-2-pyridinyl]ethenyl]-6-fluoro-4(3H)-quinazolinone]
Incidence (%) (Lewis rat acute EAE; [5]): (89) %
Incidence (animals with neurological deficit / group) (Lewis rat acute EAE; [5]): 8/9
Duration (Lewis rat acute EAE; [5]): 3.4 days
Onset (Lewis rat acute EAE; n = 8 for CP465022, 10 mg/kg i.p. twice daily 10-16 dpi): 13.4 d.p.i.
Peak Disease Score (Lewis rat acute EAE; [5]): 2.0
Cumulative Disease Score (Lewis rat acute EAE; summation of daily scores, CP465022 10 mg/kg i.p. twice daily 10-16 dpi): 7.2
Weight Loss (Lewis rat acute EAE; weight on cessation of experiment as percent of maximum weight before disease onset, CP465022 10 mg/kg i.p. twice daily): 20%
neurological deficits during acute EAE (in words) (Lewis rat acute EAE; rats): reduced neurological deficits
cumulative disease score relative to vehicle treatment (in words) (Lewis rat acute EAE; [6]): reduced
disease duration relative to vehicle treatment (in words) (Lewis rat acute EAE; [6]): reduced
disease onset relative to vehicle treatment (in words) (Lewis rat acute EAE; [6]): significantly delayed
peak disease score relative to vehicle treatment (in words) (Lewis rat acute EAE; [7]): significantly reduces; also recorded: reduced
severity of paralysis during EAE (in words) (Lewis rat acute EAE; [6]): reduces the severity of paralysis

CC1=NN=C(c2ccc(N)cc2)c2cc3c(cc2C1)OCO3 [GYKI52466, 1-(-aminophenyl)-4-methyl-7,8-methylene-dioxy-5H-2,3-benzodiazepine]
Incidence (%) (Lewis rat acute EAE; [8]): (60) %
Incidence (animals with neurological deficit / group) (Lewis rat acute EAE; [8]): 15/16
Duration (Lewis rat acute EAE; [8]): 4.0 days
Onset (Lewis rat acute EAE; n = 15, GYKI52466 30 mg/kg i.p. twice daily 10-16 dpi): 11.6 d.p.i.
Peak Disease Score (Lewis rat acute EAE; [8]): 2.4
Cumulative Disease Score (Lewis rat acute EAE; summation of daily scores, GYKI52466 30 mg/kg i.p. twice daily 10-16 dpi): 8.0
Weight Loss (Lewis rat acute EAE; weight on cessation of experiment as percent of maximum weight before disease onset, GYKI52466 30 mg/kg i.p. twice daily): 20%
neurological deficits during acute EAE (in words) (Lewis rat acute EAE; rats): reduced neurological deficits
cumulative disease score relative to vehicle treatment (in words) (Lewis rat acute EAE; [3]): significantly reduced
peak disease score relative to vehicle treatment (in words) (Lewis rat acute EAE; [4]): significantly reduced
severity of paralysis during EAE (in words) (Lewis rat acute EAE; [3]): reduces the severity of paralysis

O=c1[nH]c2cc(C(F)(F)F)c(N3CCOCC3)cc2n(CP(=O)(O)O)c1=O [MPQX]
Incidence (%) (Lewis rat acute EAE; [9]): (58) %
Incidence (animals with neurological deficit / group) (Lewis rat acute EAE; [9]): 7/12
Duration (Lewis rat acute EAE; [9]): 1.7 days
Onset (Lewis rat acute EAE; n = 7 for MPQX, 10 mg/kg i.p. twice daily 10-16 dpi): 12.3 d.p.i.
Peak Disease Score (Lewis rat acute EAE; [9]): 1.2
Cumulative Disease Score (Lewis rat acute EAE; summation of daily scores, MPQX 10 mg/kg i.p. twice daily 10-16 dpi): 3.2
Weight Loss (Lewis rat acute EAE; weight on cessation of experiment (18 dpi) as percent of maximum weight before disease onset, MPQX 10 mg/kg i.p. twice daily): 22%
neurological deficits during acute EAE (in words) (Lewis rat acute EAE; rats): reduced neurological deficits
cumulative disease score relative to vehicle treatment (in words) (Lewis rat acute EAE; [6]): reduced
disease duration relative to vehicle treatment (in words) (Lewis rat acute EAE; [6]): reduced
disease onset relative to vehicle treatment (in words) (Lewis rat acute EAE; [6]): significantly delayed
peak disease score relative to vehicle treatment (in words) (Lewis rat acute EAE; [7]): significantly reduces; also recorded: reduced
severity of paralysis during EAE (in words) (Lewis rat acute EAE; [6]): reduces the severity of paralysis

NS(=O)(=O)c1cccc2c1c([N+](=O)[O-])cc1nc(O)c(O)nc12 [NBQX, 2,3-dihydroxy6-nitro-7-sulfamoylbenzo-(F)quinoxaline]
disease severity between dpi 28 to 48 (in words) ([1]; Biozzi mice, NBQX 30 mg/kg i.p. once daily for 17 days commencing on dpi 26, P<0.05): reduced disease severity
disease severity between dpi 10 to 48 (in words) ([1]; Biozzi mice, NBQX 30 mg/kg i.p. twice daily for 7 days starting on dpi 10, P<0.001): improved neurological outcome reducing disease severity
severity of paralysis during chronic EAE (in words) ([1]; NBQX 30 mg/kg i.p., twice daily 10-16 dpi (A) or once daily 26-42 dpi (B)): reduces the severity of paralysis
neurological deficit during chronic EAE (in words) ([1]; mice, following treatment): reduction in neurological deficit
Incidence (%) (Lewis rat acute EAE; [10]): (75) %
Incidence (animals with neurological deficit / group) (Lewis rat acute EAE; [10]): 4/10
onset of weight loss (Lewis rat acute EAE; NBQX 30 mg/kg i.p. twice daily 10-16 dpi, p<0.01): 13 dpi
rats in which development of paralysis was completely prevented (Lewis rat acute EAE; NBQX 30 mg/kg i.p. twice daily from day 10 to 16 post immunisation): 6 out of 10
Duration (Lewis rat acute EAE; [11]): 1.5 days
Onset (Lewis rat acute EAE; n = 4 for NBQX, 30 mg/kg i.p. twice daily 10-16 dpi): 11.8 d.p.i.
Peak Disease Score (Lewis rat acute EAE; [11]): 0.7
Cumulative Disease Score (Lewis rat acute EAE; summation of individual daily disease scores, 30 mg/kg i.p. twice daily 10-16 dpi): 2.4
Weight Loss (Lewis rat acute EAE; weight on cessation of treatment (16 dpi) as percent of maximum weight before disease onset, 30 mg/kg i.p. twice daily): 14%
neurological deficits during acute EAE (in words) (Lewis rat acute EAE; rats): reduction in neurological deficits
cumulative disease score relative to vehicle treatment (in words) (Lewis rat acute EAE; [3]): significantly reduced
disease duration relative to vehicle treatment (in words) (Lewis rat acute EAE; [3]): significantly reduced
peak disease score relative to vehicle treatment (in words) (Lewis rat acute EAE; [4]): significantly reduced
severity of paralysis during EAE (in words) (Lewis rat acute EAE; [3]): reduces severity of paralysis
weight loss during the course of EAE (in words) (Lewis rat acute EAE; rats, NBQX 30 mg/kg i.p. twice daily 10-16 dpi, up to cessation of treatment (16 dpi)): reduces weight loss; also recorded: decreasing the percent body weight lost

(−)1-(4-aminophenyl)-4-methyl-7,8-methylenedioxy-4,5-dihydro-^3-methylcarbamoyl-2,3-benzodiazepine [GYKI53773]
Incidence (%) (Lewis rat acute EAE; [12]): (60) %
Incidence (animals with neurological deficit / group) (Lewis rat acute EAE; [12]): 6/10
Duration (Lewis rat acute EAE; [12]): 1.9 days
Onset (Lewis rat acute EAE; n = 6 for GYKI53773, 30 mg/kg i.p. twice daily 10-16 dpi): 12.7 d.p.i.
Peak Disease Score (Lewis rat acute EAE; [12]): 0.9
Cumulative Disease Score (Lewis rat acute EAE; summation of daily scores, GYKI53773 30 mg/kg i.p. twice daily 10-16 dpi): 2.1
Weight Loss (Lewis rat acute EAE; weight on cessation of experiment (20 dpi) as percent of maximum weight before disease onset, GYKI53773 30 mg/kg i.p. twice daily): 16%
neurological deficits during acute EAE (in words) (Lewis rat acute EAE; rats): reduced neurological deficits
cumulative disease score relative to vehicle treatment (in words) (Lewis rat acute EAE; [3]): significantly reduced
disease duration relative to vehicle treatment (in words) (Lewis rat acute EAE; [3]): significantly reduced
peak disease score relative to vehicle treatment (in words) (Lewis rat acute EAE; [4]): significantly reduced
peak disease score relative to vehicle treatment (in words) (Lewis rat acute EAE; rats, 30 mg/kg i.p. twice daily 10-16 dpi, listed as GYKM53773, 30 mg/kg): significantly reduces
severity of paralysis during EAE (in words) (Lewis rat acute EAE; [3]): reduces the severity of paralysis
